From patent US10130676B2, “Therapeutic peptides for cerebrovascular diseases” (Prime Bio-Drug Development Limited, priority 2015, dated 2018)
Ends that are not written are not given here.

Tests used:
[1] = In vivo distribution of Cy5.5-conjugated peptides after i.v. injection (IVIS optical imaging); design: species or system C57B/L6 mice; conditions: for fluorescent intensity detected in the brain: 15 and 30 minutes after injection (FIG. 12); for fluorescent intensity detected in the spinal cord: 30 and 60 minutes after injection (FIG. 13)
Text: The C57B/L6 mice (6˜8 week-old, female) were purchased from National Laboratory Animal Center, Taiwan. For optical imaging, animals were anesthetized by 2% isoflurane gas mixed with oxygen and intravenous injection (i.v.) of Cy5.5-conjugated peptide 1 or Cy5.5-conjugated peptide 5 (35 nmole/per mouse). After administration the mice were placed prone or supine in a dark box and a photographic image was first acquired at low light (exposure time: 5 seconds). At indicated time points after administration of probes, fluorescent signals were obtained using a CCD camera thermoelectrically cooled to −70° C. (Xenogen—IVIS® Spectrum Imaging System, Xenogen Technology). The photon integration period was 1-2 sec.

PC12 cells [2] = assay: PC12 cell survival upon exposure to L-glutamic acid (MTT); assay type: cell-based, rat; conditions: 10 ug/ml for each peptide; 1 mM L-glutamic acid
Procedure: PC12 cells were obtained from the Chinese Academy of Medical Sciences, Beijing, China. To examine cell survival upon exposure to L-glutamic acid, PC12 cells were grown to confluence in 96 well plate in serum-free RPMI-1640. […] After 15-min incubation, medium was changed to serum-free RPMI-1640. After 24 h incubation, 100 μL MTT (final concentration 0.5 mg/ml) was added for additional 4 h incubation, and the cell survival was subsequently assessed by absorbance at 540 nm under a Fluostar microplate reader (BMG Germany).
(§1) Differences were considered significant at P<0.05.

PC12 cells [3] = assay: PC12 cell survival upon exposure to H2O2 (MTT); assay type: cell-based, rat; conditions: 10 ug/ml for each peptide; 200 μM H2O2, 24 h
Procedure: To examine cell survival upon exposure to H2O2, PC12 cells were grown to confluence in 96 well plate and the medium was changed to serum-free medium containing 200 μM H2O2 (final volume 100 μl) for 24 h. […] After 24 h incubation, 100 μL MTT (final concentration 0.5 mg/ml) was added for additional 4 h incubation, and the cell survival was subsequently assessed by absorbance at 540 nm under a Fluostar microplate reader (BMG, Germany).
as §1

PC12 cells [4] = assay: PC12 cell survival under hypoglycemic, hypoxic or hypoglycemic-hypoxic conditions (MTT); conditions: for protective effect on PC12 from cell death under hypoglycemic and hypoxic conditions: 10 ug/ml for each peptide, 24 h; for protective effect against cell death induced by hypoxia / protective effects against cytotoxicity induced by hypoxia or by (hypoglycemia+hypoglycemia): peptide used individually; for protective effects against cytotoxicity induced by hypoxia or by (hypoglycemia+hypoglycemia): conditions as printed
Procedure: PC12 cells were propagated and cultured as described above. For hypoglycemic condition, 125 μM Cobaltous Chloride (CoCl2, Sigma, USA) was added into the culture media when PC12 cells were in monolayer for further 24 h incubation as described. For induction of hypoglycemia, culture media was changed to glucose-free Eagle's medium when PC12 grew to monolayer for additional 24 h incubation. For hypoglycemic and hypoxic conditions, PC12 cells were cultured in glucose-free Eagle's media with addition of 125 μM CoCl2. After 24 h, cells were harvested and subject to MTT assay.
Data were expressed as mean±standard error (SE) and multiple comparisons were evaluated by the analysis of variance and Neuman-Keuls test. Differences were considered significant at P<0.05. Neurological deficit data were evaluated by the nonparametric Mann-Whitney test.

[5] = Circular dichroism (CD) of the peptide in PBS; assay type: physicochemical; conditions: 50 μM in PBS
Procedure: (§2) Peptide-5 was dissolved in series of solution with different pH value and stood for 3 days. Adequate amount of each resulting solution was analyzed by HPLC (Agilent 1100 series) using a Nucleodur Pyramid C18 column (250 mm×4.6 mm, 5 μm) and gradient elution (0 min: 0.1% TFA in H2O; 10 min: 0.1% TFA in MeOH; 15 min: 0.1% TFA in MeOH) with 0.2 mL/min flow. The signals were monitored by UV detector at 220 nm wavelength. The sample collected in the stability test was also analyzed by MALDI-TOF Mass (Bruker Daltonics, Autoflex III) with 2,5-dihydroxybenzoic acid (DHB) as matrix. Furthermore, the portion respond to the signal at 7.8 min were collected and subject to MALDI-MS analysis. Peptide-5 was also prepared 50 μM in PBS and recorded from circular dichroism (Jasco, J-810).

[6] = Stability test in solutions of different pH value (HPLC, MALDI-TOF); assay type: physicochemical; conditions: pH 2.0 to 8.5, 3 days, HPLC UV 220 nm
Procedure: as §2

In the case of DEAQETAVSSH-OH [Peptide 1], the “fluorescent intensity detected in the brain” value [1] is reported as “high fluorescent intensity”, the “fluorescent intensity detected in the spinal cord” value [1] is reported as “high fluorescent intensity” and the “protective effect on L-glutamic-acid-treated PC12 cells” value (PC12 cells [2]) is reported as “a degree of protective effect”. The “protective effect on H2O2-treated neural cells (cell survival)” value (PC12 cells [3]) was “a degree of protective effect”, the “protective effect on PC12 from cell death under hypoglycemic and hypoxic conditions” value (PC12 cells [4]) was “had the protective effect as well” and the “protective effect against cell death induced by hypoxia” value (PC12 cells [4]) was “some protective effect”. For the same substance, the “protective effects against cytotoxicity induced by hypoxia or by (hypoglycemia+hypoglycemia)” value (PC12 cells [4]) was “no protective effects”.

With DEAQETAVSSHEQD-OH [Peptide 5] the “fluorescent intensity detected in the brain” value [1] was “high fluorescent intensity”, the “fluorescent intensity detected in the spinal cord” value [1] was “high fluorescent intensity” and the “protective effect on L-glutamic-acid-treated PC12 cells” value (PC12 cells [2]) was “a degree of protective effect”. For the same substance, the “stability by CD (circular dichroism)” value [5] was “extremely stable”, the “protective effect on H2O2-treated neural cells (cell survival)” value (PC12 cells [3]) was “a degree of protective effect” and the “protective effect on PC12 from cell death under hypoglycemic and hypoxic conditions” value (PC12 cells [4]) was “had the protective effect as well”. The “protective effect against cell death induced by hypoxia” value (PC12 cells [4]) was “some protective effect”, the “protective effects against cytotoxicity induced by hypoxia or by (hypoglycemia+hypoglycemia)” value (PC12 cells [4]) was “no protective effects” and the “stability in solution with various pH value” [6] was “stable, even in a very acidic environment”.
